Publication PMC10975434 (Pharmaceutics, 2024)
Residue numbers refer to the chain shown, from its start. Several values for one entry are separate records, joined by “and”; a condition that tells them apart may be missing. Equal entries are not always repeated. Where two headings read alike, the source gives them in different places.

What was measured:
[1] = target: T1, UGT2B7 (Homo sapiens, UniProt P16662)
T1 sequence (P16662 24-529): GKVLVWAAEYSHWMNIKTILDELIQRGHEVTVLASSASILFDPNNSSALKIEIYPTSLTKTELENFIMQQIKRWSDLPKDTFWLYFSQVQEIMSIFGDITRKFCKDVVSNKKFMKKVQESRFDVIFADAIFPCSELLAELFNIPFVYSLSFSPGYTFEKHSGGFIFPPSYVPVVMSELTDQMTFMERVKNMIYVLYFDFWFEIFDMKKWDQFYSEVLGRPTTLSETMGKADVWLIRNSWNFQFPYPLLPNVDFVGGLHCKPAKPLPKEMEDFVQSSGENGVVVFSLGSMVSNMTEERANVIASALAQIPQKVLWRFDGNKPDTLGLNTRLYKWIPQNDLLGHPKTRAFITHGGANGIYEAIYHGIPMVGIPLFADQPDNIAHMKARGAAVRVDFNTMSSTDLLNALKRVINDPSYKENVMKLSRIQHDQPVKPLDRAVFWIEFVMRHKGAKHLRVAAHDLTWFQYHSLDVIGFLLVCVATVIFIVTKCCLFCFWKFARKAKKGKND

[2] = target: T1, UGT2B7; assay: IC50 determination and calculated Ki, morphine glucuronidation in HLM
[3] = target: T2, UGT2B7 (Homo sapiens, UniProt P16662, Y268H); assay: IC50 determination, morphine glucuronidation in rUGT2B7-overexpressing HEK293 cell microsomes
T2 sequence (P16662 24-529 Y268H): T1 sequence (P16662 24-529) with Y245H

[4] = target: T2, UGT2B7; assay: Inhibition screening of morphine glucuronidation in rUGT2B7-overexpressing HEK293 cell microsomes; settings: rUGT-overexpressing microsomes and HLM
[5] = target: T1, UGT2B7; assay: Inhibition screening of morphine glucuronidation in pooled human liver microsomes (HLM); settings: 100 µM cannabinoid
[6] = Estimated unbound maximum hepatic inlet concentration used for the static model
Experimental: (8) [I]h=fu,p×Cmax+Fa ×Fg×Ka×Dose/Qh ×Rb
For the static mechanistic modeling, hepatic blood flow (Qh) and enterocyte blood flow (Qen) were set to 1500 mL/min and 300 mL/min, respectively, and the blood-to-plasma concentration ratio (RB) was set to 0.4 [55].
C௠௔௫ ,௛௘௣௔௧௜௖ ௜௡௟௘௧ ,௨ ൌ f௨,௣ ൈ ቀC௠௔௫ ൅ ிೌ ൈ ி೒ ൈ ௄ೌ ൈ஽௢௦௘ொ೓ ൈ ோ್ቁ, where fu,p (unbound fraction in plasma) wa s set

[7] = target: T2, UGT2B7
[8] = cited from earlier work; for Cmax,u: after consumption; for ka (first-order absorption rate constant): ref Cox et al., 2019 [45]
[9] = cited from earlier work
[10] = target: T2, UGT2B7; assay: in vitro
[11] = target: T1, UGT2B7; assay: in vitro; settings: human liver microsomes, probe morphine […] (morphine-6-glucuronide formation)
[12] = tested on: UGT2B7; parameters: method as in PMID 9715839; settings: coadministration of zidovudine (AZT) and methadone; cited from earlier work
[13] = read-out: Calculated Ki, Morphine-3-Glucuronide, Ki=IC50/2 assuming competitive inhibition
[14] = read-out: Calculated Ki, Morphine-6-Glucuronide, Ki=IC50/2 assuming competitive inhibition
[15] = read-out: Calculated Ki,u, Morphine-3-Glucuronide, Ki corrected with fu,inc
[16] = read-out: Calculated Ki,u, Morphine-6-Glucuronide, Ki corrected with fu,inc
[17] = read-out: IC50,u, Morphine-3-Glucuronide formation, corrected for non-specific binding with fu,inc (11-OH-THC fu,inc as surrogate for 11-COOH-THC and 7-OH-CBD)
[18] = read-out: IC50,u, Morphine-6-Glucuronide formation, corrected for non-specific binding with fu,inc (11-OH-THC fu,inc as surrogate for 11-COOH-THC and 7-OH-CBD)
[19] = read-out: Cmax,hepatic inlet,u, THC dose 20 mg, Oral, estimated from Cmax of Bansal et al., 2022 [56]
[20] = read-out: Cmax,hepatic inlet,u, THC dose 25 mg, Inhalation, estimated from Cmax of Bansal et al., 2022 [56]
[21] = read-out: Cmax,hepatic inlet,u, THC dose 70 mg, Inhalation, estimated from Cmax of Bansal et al., 2022 [56]
[22] = read-out: Cmax,hepatic inlet,u, THC dose 100 mg, Inhalation, estimated from Cmax of Bansal et al., 2022 [56]
[23] = read-out: Cmax,hepatic inlet,u, THC dose 130 mg, Oral, estimated from Cmax of Bansal et al., 2022 [56]
[24] = read-out: Cmax,hepatic inlet,u, THC dose 160 mg, Oral, estimated from Cmax of Bansal et al., 2022 [56]
[25] = microsomes of HEK293 cells overexpressing recombinant UGT2B7, probe morphine […] (morphine-3-glucuronide formation)
[26] = microsomes of HEK293 cells overexpressing recombinant UGT2B7, probe morphine […] (morphine-6-glucuronide formation)

Q: Which results are given for `CCCCCc1cc(O)c2c(c1)OC(C)(C)[C@@H]1CCC(C(=O)O)=C[C@@H]21` [11-COOH-THC, 11-nor-9-carboxy-Δ^9-tetrahydrocannabinol]?
A: IC50 [1]: 184 µM and 104 µM; Ki [2, 13]: 91.6 ± 18.5 µM; Ki [2, 14]: 52.1 ± 8.16 µM; Ki [2, 15]: 8.61 ± 1.74 µM; Ki [2, 16]: 4.89 ± 0.77 µM; IC50 [2, 17]: 17 ± 3.5 µM; IC50 [2, 18]: 9.8 ± 1.5 µM; IC50 [3, 17]: 3.7 ± 1.2 µM; IC50 [3, 18]: 4.3 ± 1.2 µM; inhibition of UGT2B7-mediated morphine metabolism (overall, in words) [4]: more moderate inhibition; inhibition of M3G and M6G formation in HLM (in words) [5]: weak to moderate inhibition; Cmax [6, 19]: 190 nM; Cmax [6, 20]: 70 nM; Cmax [6, 21]: 180 nM; Cmax [6, 22]: 260 nM; Cmax [6, 23]: 1220 nM; Cmax [6, 24]: 1500 nM; IC50 [7]: 47 µM and 55 µM

Q: Which results are given for `CCCCCc1cc(O)c2c(c1)OC(C)(C)[C@@H]1CCC(C)=C[C@@H]21` [THC, Δ^9-tetrahydrocannabinol, reference compound]?
A: IC50 [1]: 24 µM and 15 µM; Ki [2, 13]: 12.2 ± 2.77 µM; Ki [2, 14]: 7.69 ± 1.63 µM; Ki [2, 16]: 0.37 ± 0.08 µM; IC50 [2, 17]: 1.2 ± 0.27 µM; IC50 [2, 18]: 0.74 ± 0.16 µM; IC50 [3, 17]: 0.85 ± 0.34 µM; IC50 [3, 18]: 0.34 ± 0.07 µM; Cmax,u [8]: 20 nM; ka (first-order absorption rate constant) ([8]; value set for the static model): 0.02; BP (blood to plasma ratio) ([8]; value set for the static model, ref Schwilke et al., 2009 [55]): 0.4; inhibition of UGT2B7-mediated morphine metabolism (overall, in words) [4]: strong inhibition; inhibition of M3G and M6G formation in HLM (in words) [5]: significant inhibition; Cmax [6, 19]: 30 nM; Cmax [6, 20]: 250 nM; Cmax [6, 21]: 690 nM; Cmax [6, 22]: 990 nM; Cmax [6, 23]: 200 nM; Cmax [6, 24]: 240 nM; unbound fraction (fu,inc) ([9]; HLM): 0.048

Q: Which results are given for `CCCCCc1cc(O)c2c(c1)OC(C)(C)c1ccc(C)cc1-2` [CBN, cannabinol]?
A: inhibition of UGT2B7-mediated morphine metabolism (overall, in words) [4]: no significant inhibitory activity; inhibition of M3G and M6G formation in HLM (in words) [5]: did not exhibit appreciable inhibition; inhibition at 100 µM [10, 25]: 10%; inhibition at 100 µM [10, 26]: 33%

Q: For `C=C(C)[C@@H]1CCC(C(=O)O)=C[C@H]1c1c(O)cc(CCCCC)cc1O` [7-COOH-CBD, 7-carboxy-cannabidiol], which “inhibition of M3G and M6G formation in HLM (in words)” value (shortened to “inhibition of M3G and M6G formation”) [5] is on record?
A: weak to moderate inhibition

Q: Which Ki [2, 13] does the source give for `C=C(C)[C@@H]1CCC(CO)=C[C@H]1c1c(O)cc(CCCCC)cc1O` [7-OH-CBD, 7-hydroxy-cannabidiol] here?
A: 8.59 ± 3.05 µM

Q: What about the Ki [2, 14] of the same compound?
A: 3.99 ± 2.54 µM

Q: What about the Ki [2, 15] of the same compound?
A: 0.81 ± 0.29 µM

Q: What about the Ki [2, 16] of the same compound?
A: 0.38 ± 0.12 µM

Q: What about the IC50 [2, 17] of the same compound?
A: 1.6 ± 0.57 µM

Q: And the IC50 [2, 18]?
A: 0.75 ± 0.24 µM

Q: And the IC50 [3, 17]?
A: 3 ± 2.1 µM

Q: And the IC50 [3, 18]?
A: 3 ± 0.7 µM

Q: And the “inhibition of UGT2B7-mediated morphine metabolism (overall, in words)” value (from here on “inhibition … (overall, in words)”) [4]?
A: strong inhibition

Q: What about the “inhibition of M3G and M6G formation” value [5] of the same compound?
A: significant inhibition

Q: What about the Cmax ([6]; read-out: Cmax,hepatic inlet,u, CBD dose 70 mg, Oral, estimated from Cmax of Bansal et al., 2022 [56]) of the same compound?
A: 30 nM

Q: What about the Cmax ([6]; read-out: Cmax,hepatic inlet,u, CBD dose 700 mg, Oral, estimated from Cmax of Bansal et al., 2022 [56]) of the same compound?
A: 340 nM

Q: What about the Cmax ([6]; read-out: Cmax,hepatic inlet,u, CBD dose 2000 mg, Oral, estimated from Cmax of Bansal et al., 2022 [56]) of the same compound?
A: 980 nM

Q: What about the IC50 [7] of the same compound?
A: 38 µM and 39 µM

Q: Which Ki ([2]; human, human liver microsomes, probe morphine […] (morphine-3-glucuronide formation), Calculated Ki, Morphine-3-Glucuronide, Ki=IC50/2 assuming competitive inhibition) does the source give for `C=C(C)[C@@H]1CCC(C)=C[C@H]1c1c(O)cc(CCCCC)cc1O` [CBD, cannabidiol, reference compound] here?
A: 4.11 ± 2.24 µM

Q: And the IC50 ([2]; human, human liver microsomes, probe morphine […] (morphine-3-glucuronide formation), IC50,u, Morphine-3-Glucuronide formation, corrected for non-specific binding with fu,inc (11-OH-THC fu,inc as surrogate for 11-COOH-THC and 7-OH-CBD))?
A: 0.42 ± 0.23 µM

Q: And the Ki ([2]; human, human liver microsomes, probe morphine […] (morphine-6-glucuronide formation), Calculated Ki, Morphine-6-Glucuronide, Ki=IC50/2 assuming competitive inhibition)?
A: 3.16 ± 1.32 µM

Q: And the Ki ([2]; human, human liver microsomes, probe morphine […] (morphine-6-glucuronide formation), Calculated Ki,u, Morphine-6-Glucuronide, Ki corrected with fu,inc)?
A: 0.16 ± 0.07 µM

Q: And the IC50 ([2]; human, human liver microsomes, probe morphine […] (morphine-6-glucuronide formation), IC50,u, Morphine-6-Glucuronide formation, corrected for non-specific binding with fu,inc (11-OH-THC fu,inc as surrogate for 11-COOH-THC and 7-OH-CBD))?
A: 0.32 ± 0.13 µM

Q: And the “Cmax,u” value [8]?
A: 130 nM

Q: And the “ka (first-order absorption rate constant)” value ([8]; value set for the static model)?
A: 0.02

Q: What about the IC50 [11] of the same compound?
A: 6.3 ± 2.6 µM

Q: And the “inhibition … (overall, in words)” value [4]?
A: strong inhibition

Q: What about the “inhibition of M3G and M6G formation” value [5] of the same compound?
A: significant inhibition

Q: And the Cmax ([6]; human, hepatic inlet (unbound), inhaled or intranasal, 19 mg)?
A: 350 nM

Q: What about the Cmax ([6]; human, hepatic inlet (unbound), po, 70 mg) of the same compound?
A: 90 nM

Q: And the Cmax ([6]; human, hepatic inlet (unbound), po, 700 mg)?
A: 890 nM

Q: And the Cmax ([6]; human, hepatic inlet (unbound), po, 2000 mg)?
A: 2540 nM

Q: And the inhibition at 100 µM [10, 25]?
A: 99%

Q: What about the inhibition at 100 µM [10, 26] of the same compound?
A: 98%

Q: For “11-hydroxy-Δ^9-tetrahydrocannabinol [11-OH-THC]”, which IC50 [1] is on record?
A: 18 µM and 13 µM

Q: And the Ki [2, 13]?
A: 8.82 ± 8.42 µM

Q: What about the Ki [2, 14] of the same compound?
A: 6.61 ± 5.02 µM

Q: And the Ki [2, 15]?
A: 0.82 ± 0.79 µM

Q: What about the Ki [2, 16] of the same compound?
A: 0.62 ± 0.47 µM

Q: And the IC50 [2, 17]?
A: 1.7 ± 1.6 µM

Q: What about the IC50 [2, 18] of the same compound?
A: 1.2 ± 0.95 µM

Q: What about the IC50 [3, 17] of the same compound?
A: 0.96 ± 0.27 µM

Q: And the IC50 [3, 18]?
A: 0.96 ± 0.28 µM

Q: What about the “inhibition … (overall, in words)” value [4] of the same compound?
A: strong inhibition

Q: And the “inhibition of M3G and M6G formation” value [5]?
A: significant inhibition

Q: And the Cmax [6, 19]?
A: 20 nM

Q: What about the Cmax [6, 20] of the same compound?
A: 10 nM

Q: What about the Cmax [6, 21] of the same compound?
A: 30 nM

Q: What about the Cmax [6, 22] of the same compound?
A: 50 nM

Q: And the Cmax [6, 23]?
A: 100 nM

Q: And the Cmax [6, 24]?
A: 120 nM

Q: And the IC50 [7]?
A: 12 ± 3.5 µM

Q: What about the “unbound fraction (fu,inc)” value ([9]; HLM) of the same compound?
A: 0.094

Q: And the “unbound fraction (fu,inc)” value ([9]; rUGT-overexpressing microsomes)?
A: 0.078

Q: With `Cc1cn([C@H]2C[C@H](N=[N+]=[N-])[C@@H](CO)O2)c(=O)[nH]c1=O` [zidovudine] as the compound, how does the “increase in zidovudine exposure” value [12] read?
A: 1.4 fold
